From US6846625B1, “Method for identifying validated target and assay combination for drug development” (priority 1998, dated 2005) come the findings set out here.

Structures are written as SMILES. Peptide text beside a SMILES is read from it.

One data set addresses S. aureus MetRS (Staphylococcus aureus, UniProt Q5HII6). The experiment in a line: S. aureus MetRS aminoacylation (functional charging) assay. It counts as biochemical. The protocol:
The activity of S. aureus MetRS was monitored by the aminoacylation reaction. The enzyme was diluted in 50 mM HEPES, pH 7.55, 5 mM DTT and 0.01% BSA. A typical 50 μL reaction mixture contained 30 mM HEPES, pH 7.5, 10 mM MgCl2, 30 mM KCl, 90 μM E. coli tRNA, 2 mM ATP and 5 μM [^3H]-methionine (10 Ci/mmol). The reaction was initiated by addition of enzyme at 25° C. At 4 different timepoints, 10 μL of the reaction was quenched into 150 μL cold 5% TCA on a Millipore filter plate. The filter plate is then washed three times with cold 5% TCA followed by water and then ethanol. The filter plate was dried before addition of 100 μL Packard Microscint-20 and counted on a Packard Top-Count microplate scintillation counter.
Inhibition studies were performed for the peptides against two of the substrates, ATP and methionine. This was done at varying concentrations of peptides by holding the concentration of one substrate at its K value (1.5 mM for ATP and 5 μM for methionine), while varying the other substrate concentration around its Km value. The initial velocity data obtained were then analyzed using GraFit.

A further data set addresses Sa MetRS (Staphylococcus aureus, UniProt Q5HII6). The experiment in a line: Sa MetRS/Met1-F fluorescence polarization binding assay. The protocol:
A non-radioactive, homogeneous, sensitive fluorescent polarization (FP) assay has been developed for Staphylococcus aureus MetRS (Sa MetRS) and Met1 peptide. FP is a ratiometric detection method which is capable of discriminating between free and bound states of fluorescently labeled tracer based on differences in the rotation rates of the two states. The Sa MetRS FP binding assay involves the incubation of fluorescently labeled Met1 peptide (Met1-F) with purified Sa MetRS. In the bound state, Met1-F is bound to Sa MetRS and an increase in polarization signal is detected using a FP detection system. In the free state, Met1-F is not bound to Sa MetRS and there is a decrease in polarization signal.
A 96-well plate (Costar cat# 3915) was blocked for 1 hour at room temperature with 150 μL/well 2 mg/ml bovine serum albumin (BSA) (FisherBiotech cat# BP1600-100) in 0.1 M NaHCO3. The plate was then washed manually three times with 150 μL/well of TBS (10 mM Tris-HCl pH 8.0, 150 mM NaCl). […] The plate was then read in an LJL Analyst (LJL Biosystems, Sunnyvale Calif.) in fluorescent polarization mode.
The FP assay for Sa MetRS inhibition has been evaluated to see if it is amenable for high throughput screening (HTS) for drug discovery. […] The IC50 for Met1 was tested on the plate in duplicate and the results were consistent with previously determined values. […]
A general note: Polarisation of emitted light reports the rotation of a fluorescent probe.

Chain of S. aureus MetRS (Q5HII6 whole entry): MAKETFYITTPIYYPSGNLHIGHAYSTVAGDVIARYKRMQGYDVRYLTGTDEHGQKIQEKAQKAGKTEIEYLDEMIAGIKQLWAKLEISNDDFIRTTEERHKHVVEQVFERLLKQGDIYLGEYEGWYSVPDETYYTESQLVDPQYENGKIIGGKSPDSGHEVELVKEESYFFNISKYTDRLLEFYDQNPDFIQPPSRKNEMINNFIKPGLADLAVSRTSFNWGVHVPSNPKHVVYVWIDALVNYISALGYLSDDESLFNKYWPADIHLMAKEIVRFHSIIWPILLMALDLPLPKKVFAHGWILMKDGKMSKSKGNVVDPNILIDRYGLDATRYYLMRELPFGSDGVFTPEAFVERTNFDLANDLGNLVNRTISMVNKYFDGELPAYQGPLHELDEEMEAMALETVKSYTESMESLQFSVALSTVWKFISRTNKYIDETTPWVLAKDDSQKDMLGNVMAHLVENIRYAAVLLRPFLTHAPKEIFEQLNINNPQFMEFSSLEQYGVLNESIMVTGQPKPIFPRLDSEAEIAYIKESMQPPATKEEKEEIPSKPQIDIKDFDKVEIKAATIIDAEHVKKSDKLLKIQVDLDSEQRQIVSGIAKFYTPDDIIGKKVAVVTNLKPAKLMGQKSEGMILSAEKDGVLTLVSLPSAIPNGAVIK
Chain of Sa MetRS (Q5HII6 whole entry): as above

Regarding `CSCC[C@H](NC(=O)[C@@H]1CCCN1C(=O)[C@H](Cc1c[nH]c2ccccc12)NC(=O)[C@H](CCCNC(=N)N)NC(=O)[C@H](CC(C)C)NC(=O)[C@H](CCC(N)=O)NC(=O)[C@H](Cc1c[nH]c2ccccc12)NC(=O)[C@@H](NC(=O)[C@H](CC(N)=O)NC(=O)[C@@H]1CCCN1C(=O)[C@@H](N)CC(=O)O)[C@@H](C)O)C(=O)N[C@@H](Cc1c[nH]cn1)C(=O)O` [JT01, DPNTWQLRWPMH] (H-DPNTWQLRWPMH-OH; N-terminus and C-terminus assumed), the solubility is more than 100 µM. The half-maximal inhibitory concentration (IC50) at S. aureus MetRS came out at 0.2 µM. The same compound gave an inhibitory constant (Ki) on S. aureus MetRS (Kl (ATP), ATP varied, methionine held at 5 μM) of 13 nM. For the same compound, the affinity on S. aureus MetRS (Kl (methionine), methionine varied, ATP held at 1.5 mM) corresponds to a Ki of 138 nM. This compound came in with an IC50 at Sa MetRS of 700 nM.

What is called IC50 is the concentration that gives 50% inhibition. Read a low IC50 as higher potency. Broadly, the Ki is the dissociation constant of the complex between target and ligand, obtained from inhibition or displacement. Higher therefore signals lower affinity. Broadly, the solubility is the concentration that dissolves in the medium under given conditions.
